Reference: PubChem BioAssay (NCI)
Several values for one entry are separate records, joined by “and”; a condition that tells them apart may be missing. Equal entries are not always repeated.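 Method: 48-hour compound exposure of cells in 96-well plates, five concentrations, linear interpolation of endpoints. GI50 = concentration required for 50% inhibition of growth. The concentration for full growth arrest is given as TGI.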

Key:
Experiment in all cases: DTP human tumour cell line panel, 48 h
[1] = system: SK-MEL-2 melanoma
[2] = system: OVCAR-4 ovarian
[3] = system: NCI/ADR-RES ovarian
[4] = system: UO-31 renal
[5] = system: SK-OV-3 ovarian
[6] = system: T-47D breast
[7] = system: OVCAR-3 ovarian
[8] = system: CAKI-1 renal
[9] = system: SF-268 CNS
[10] = system: SN12C renal

For `O=C(Nc1cn[nH]c1-c1nc2ccc(CN3CCOCC3)cc2[nH]1)NC1CC1`, the GI50 [1] was 1.35 µM and > 10 µM, the TGI [1] was 3.94 µM and > 10 µM and the GI50 [2] was 1.04 µM and > 10 µM. The TGI [2] was 12.4 µM and > 10 µM, the GI50 [3] was 12.1 µM and > 10 µM and the TGI [3] was > 86.7 µM. For the same molecule, the GI50 [4] was 0.851 µM and 2.33 µM, the TGI [4] was > 24.6 µM and the GI50 [5] was 0.375 µM and 0.299 µM. The TGI [5] was 3.52 µM and 8.08 µM, the GI50 [6] was 1.82 µM and 9.18 µM and the TGI [6] was 6.95 µM and > 10 µM. The GI50 [7] was 0.306 µM and 1.32 µM, the TGI [7] was 6.3 µM and 6.7 µM and the TGI [8] was 15.2 µM and > 10 µM. For the same molecule, the GI50 [9] was 0.344 µM and 1.84 µM, the TGI [9] was 2.44 µM and > 10 µM and the GI50 [10] was 0.468 µM and 2.54 µM. The TGI [10] was 12.1 µM and > 10 µM.

With `C#Cc1cccc(NC(=O)c2cccc(NC(=O)CCl)c2)c1` the GI50 [1] was 62.8 µM, the TGI [1] was > 82.5 µM and the GI50 [2] was 15.8 µM. It also gave a TGI [2] of 33.9 µM, a GI50 [3] of 17.3 µM and a TGI [3] of 53.1 µM. It also gave a GI50 [4] of 12 µM, a TGI [4] of 22.9 µM and a GI50 [5] of 56.4 µM. For the same molecule, the TGI [5] was > 82.5 µM, the GI50 [6] was 30.2 µM and the TGI [6] was > 82.5 µM. For the same molecule, the GI50 [7] was 14.2 µM, the TGI [7] was 29.4 µM and the GI50 [8] was 31.5 µM. For the same molecule, the TGI [8] was > 82.5 µM, the GI50 [9] was 23 µM and the TGI [9] was > 82.5 µM. For the same molecule, the GI50 [10] was 14.9 µM and the TGI [10] was 49.1 µM.

For `O=C(O)CN1C(=O)CN=C(c2ccccn2)c2cc(Cl)ccc21`, the TGI [1] was > 100 µM, the TGI [2] was > 100 µM and the TGI [3] was > 100 µM. The TGI [4] was > 100 µM, the TGI [5] was > 100 µM and the TGI [6] was > 100 µM. The TGI [7] was > 100 µM, the TGI [8] was > 100 µM and the TGI [9] was > 100 µM. For the same molecule, the TGI [10] was > 100 µM.

Molecule `S=C1SCN(Cc2ccccc2)CN1Cc1ccccc1` has a GI50 [1] of 7.53 µM, a TGI [1] of 25.3 µM and a GI50 [2] of 9.43 µM. For the same molecule, the TGI [2] was 27.6 µM, the GI50 [3] was 33.1 µM and the TGI [3] was > 100 µM. It also gave a GI50 [4] of 5.43 µM, a TGI [4] of 19 µM and a GI50 [5] of 98.7 µM. The TGI [5] was > 100 µM, the GI50 [6] was 3.51 µM and the TGI [6] was 21.1 µM. The GI50 [7] was 2.49 µM, the TGI [7] was 9.09 µM and the GI50 [8] was 7.19 µM. The TGI [8] was 20.9 µM, the GI50 [9] was 9.55 µM and the TGI [9] was > 37.6 µM. It also gave a GI50 [10] of 5.01 µM and a TGI [10] of 18.5 µM.

`O=C(Nc1cccc(C(F)(F)F)c1)c1ccc(NC2=C(Cl)C(=O)N(Cc3ccccc3)C2=O)cc1` showed a GI50 [1] of 7.04 µM, a TGI [1] of 24.2 µM and a GI50 [2] of 25.8 µM. For the same molecule, the TGI [2] was 54.7 µM, the GI50 [3] was 10.8 µM and the TGI [3] was 25.4 µM. It also gave a GI50 [4] of 2.84 µM, a TGI [4] of 9.06 µM and a GI50 [5] of 25.7 µM. The TGI [5] was 82.6 µM, the GI50 [6] was 12.4 µM and the TGI [6] was 52.7 µM. The GI50 [7] was 2.09 µM, the TGI [7] was 4.63 µM and the GI50 [8] was 1.65 µM. The TGI [8] was 3.24 µM, the GI50 [9] was 6.41 µM and the TGI [9] was 29.9 µM. For the same molecule, the GI50 [10] was 4.4 µM and the TGI [10] was 20.1 µM.

With `Cc1ccc2[nH]c(O)c(N=Nc3ccccc3[N+](=O)[O-])c2c1` the TGI [1] was > 100 µM, the TGI [2] was 6.18 µM and the TGI [3] was > 40.2 µM. The TGI [4] was 9.3 µM, the TGI [5] was 14.2 µM and the TGI [6] was 14 µM. For the same molecule, the TGI [7] was 99.6 µM, the TGI [8] was > 100 µM and the TGI [9] was > 29.4 µM. The TGI [10] was > 100 µM.

For `COc1ccc(C2CC(c3ccc(OC)cc3O)=NN2c2ccc(S(N)(=O)=O)cc2)cc1` (centres undefined), the GI50 [1] was 17.1 µM, the TGI [1] was 85.9 µM and the GI50 [2] was 30.8 µM. For the same molecule, the TGI [2] was > 100 µM, the GI50 [3] was 8.09 µM and the TGI [3] was > 100 µM. The GI50 [4] was 2.99 µM, the TGI [4] was > 100 µM and the GI50 [5] was 26.1 µM. For the same molecule, the TGI [5] was > 100 µM, the GI50 [6] was 4.42 µM and the TGI [6] was 85.6 µM. For the same molecule, the GI50 [7] was 12.2 µM, the TGI [7] was > 100 µM and the GI50 [8] was 6.74 µM. The TGI [8] was 91.9 µM, the GI50 [9] was 34.1 µM and the TGI [9] was > 100 µM. The GI50 [10] was 16.7 µM and the TGI [10] was > 100 µM.
